The results in this text go back to ChEMBL document CHEMBL2203247, “Ribonuclease-Activated Cancer Prodrug” (ACS Med Chem Lett, 2012).

Bounds are passed on as bounds.

One data set has as its target T1, Ribonuclease pancreatic (Homo sapiens, UniProt P07998).
T1 sequence (P07998 whole entry): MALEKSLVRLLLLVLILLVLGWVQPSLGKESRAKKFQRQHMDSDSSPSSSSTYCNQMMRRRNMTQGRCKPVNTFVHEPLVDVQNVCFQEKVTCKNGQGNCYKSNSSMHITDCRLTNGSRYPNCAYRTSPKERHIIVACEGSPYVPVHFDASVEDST
In words: Prodrug activation assessed as half life for ribonuclease 1 mediated 4-hydroxytamoxifen release in MES-NaOH buffer at pH 6.0 by HPLC analysis.

Data set [1] has as its system MCF7. In words: Antiproliferative activity against human MCF7 cells assessed as incorporation of [methyl-3H]thymidine into cellular DNA in serum free medium in presence of 6.2 ug/mL RNase 1. The format is functional, cell-based.
A short description of data set [2]: Prodrug stability assessed as 4-hydroxytamoxifen release at 40 uM in pH 7.4 ribonuclease free 0.10 M sodium phosphate buffer containing NaCl and in absence of RNase 1. In kind it is physicochemical. As to conditions: pH 7.4, 40 µM.
The nature of data set [3]: Prodrug stability assessed as compound degradation at 37 degC after 11 hrs in absence of ribonuclease 1 at pH 6.0 by HPLC analysis. The format is physicochemical. As to conditions: buffer, pH 6, 11 h.
Data set [4] is described as follows: Prodrug stability assessed as 4-hydroxytamoxifen release at 40 uM in serum free medium in absence of RNase 1. In kind it is ADME.
Data set [5] deals with MCF7. In words: Antiproliferative activity against human MCF7 cells assessed as incorporation of [methyl-3H]thymidine into cellular DNA in serum free medium in absence of 6.2 ug/mL RNase 1. In kind it is functional, cell-based.

Usually IC50 stands for the midpoint of a concentration-inhibition curve. `CC/C(=C(/c1ccc(OCCN(C)C)cc1)c1ccc(OP(=O)(O)O[C@H]2[C@@H](O)[C@H](n3ccc(=O)[nH]c3=O)O[C@@H]2CO)cc1)c1ccccc1`: the t1/2 at Ribonuclease pancreatic came out at 4 h; in data set [2] it was 9.4 h; in data set [4], 9 h. Moreover, the IC50 in the data set on MCF7 [1] stood at 5.2 µM; with MCF7 [5], 16.7 µM. Besides, the Drug degradation in data set [3] is listed as less than 6%.
On to `CCC(=C(c1ccc(O)cc1)c1ccc(OCCN(C)C)cc1)c1ccccc1`, for which the IC50 in the data set with MCF7 [1] and in the data set with MCF7 [5] was 2.7 µM in each case.
